# Results taken from patent US20190365675A1, “COMPOSITIONS FOR THE PREVENTION AND/OR TREATMENT OF ALCOHOL USE DISORDERS” (SERVICIO ANDALUZ DE SALUD, priority 2016, published 2019).
# Test system: TLR4
# Assay: TLR4 mRNA and protein expression in frontal cortex after ethanol intoxication
# Assay type: in vivo, Wistar rats
# Settings: 2-4 h after last ethanol, OEA pre-treatment
# Description: The animals were treated with intragastric (i.g.) ethanol 3 times a day using an i.g. cannula (16G needle, Fisher Scientific, Waltham, Mass., USA), following a protocol based on a slightly modified standard 4-day alcohol intoxication pattern (Bernier et al., 2002a, b) (FIG. 1A). The ethanol doses were administered every 8 h for a total time of 4 days. The rats treated with ethanol received an initial loading dose of 5 g/kg of ethanol in a 30% solution (w/v) and then a maximum maintenance dose of 3 g/kg, which were determined based on blood ethanol levels (BEL). This repeated standard alcohol intoxication paradigm kept BEL intoxication relatively constant in a range of sedation/ataxia (190 to 430 mg/dl, Table 3), according to the 6-point alcohol intoxication behavior scale (Majchrowicz, 1975). The mean dose of ethanol/rat/day (days 1-4) was 7.06 g/kg, similar to other studies (Obernier et al., 2002a, b). […] The autoradiograph was quantified by densitometry (NIH ImageJ® software, National Biosciences, Lincoln, Nebr. USA) and expressed as optical density (OD). […] The quantitative changes in mRNA levels were estimated by means of RT-PCR, carried out in the presence of the SYBR green primer using a 20-L reaction in a Rotor-Gene (Corbett Research®, Mortlake, NSW, Australia). […]
structure (smiles),measurement,value
"CCCCCCCC/C=C\CCCCCCCC(=O)NCCO [OEA, oleoylethanolamide]",Ethanol-induced TLR4 protein expression,reduce
same,Ethanol-induced overexpression of TLR-4 mRNA,reduce
